Assay results taken from ChEMBL document CHEMBL1201862, “PubChem BioAssay data set” (2004).
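The compound was tested at five concentrations on cells cultured in 96-well plates, with a 48-hour exposure period. GI50 = concentration required for 50% inhibition of growth.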 Activity calls are given as the source filed them. No stated cut-off is given here; in the data, active = GI50 up to about 1.1 µM and inactive = higher.

What was measured:
Test in all cases: DTP human tumour cell line panel, 48 h
RXF 631 = tested on: RXF 631
DMS-114 = tested on: DMS-114
KM-20L2 = tested on: KM-20L2
SNB-78 = tested on: SNB-78
HOP-18 = tested on: HOP-18
XF498 = tested on: XF498
BT-549 = tested on: BT-549
T47D = tested on: T47D

SMILES | GI50 (RXF 631) | GI50 (DMS-114) | GI50 (KM-20L2) | GI50 (SNB-78) | GI50 (HOP-18) | GI50 (XF498) | GI50 (BT-549) | GI50 (T47D)
COc1cc(/C=C(\C)c2ccc3c(c2)OCO3)cc(OC)c1OC | 28.6 µM (inactive) | 25.1 µM (inactive) | 32.4 µM (inactive) | 37.9 µM (inactive) | 64 µM (inactive) |  |  | 
COC1=C(N)C(=O)c2nc(C)ccc2C1=O |  | 1.78 µM (inactive) | 2.3 µM (inactive) | 3.52 µM (inactive) | 1.98 µM (inactive) | 1.51 µM (inactive) |  | 
CN(C)CCNC(=O)c1cccc2ccc(-c3ccc(Br)cc3)nc12 |  | 2.61 µM (inactive) | 1.78 µM (inactive) | 8.87 µM (inactive) | 1.91 µM (inactive) | 2.16 µM (inactive) |  | 
CC1=C2C=CC(=O)C[C@@]2(C)CCC1 | > 100 µM (inactive) | > 100 µM (inactive) |  | > 100 µM (inactive) |  | > 100 µM (inactive) |  | 
CCc1cccc(C)c1NC(=O)CC1C(=O)Nc2ccccc2S1(=O)=O (stereo unspecified) | 14.2 µM (inactive) | 16.8 µM (inactive) | 18.5 µM (inactive) | 21.1 µM (inactive) |  | 12.5 µM (inactive) |  | 
CC(=O)OC1(C#N)CC2OC1C1C2N=NN1C(=O)OC(C)(C)C (stereo unspecified) | 50.6 µM (inactive) | 23.2 µM (inactive) | 55.8 µM (inactive) | 26.9 µM (inactive) | > 100 µM (inactive) |  |  | 
COC(=O)CCC(NC(=S)N/N=C(\C)c1cccs1)C(=O)OC (stereo unspecified) |  | > 100 µM (inactive) | > 100 µM (inactive) | > 100 µM (inactive) | > 100 µM (inactive) | > 100 µM (inactive) |  | 
Cc1nc2ccccc2c(=O)n1/N=C(\N=N\c1ccccc1Cl)c1ccccc1Cl | 88.9 µM (inactive) | 26.4 µM (inactive) | 76.7 µM (inactive) |  | 28 µM (inactive) | 11.9 µM (inactive) |  | 
CCCCC(C)/C=C/C(O)=C1\C(=O)O/C(=C\C(=O)O)C1=O (stereo unspecified) | > 100 µM (inactive) | > 100 µM (inactive) | > 100 µM (inactive) | > 100 µM (inactive) | > 100 µM (inactive) | > 100 µM (inactive) |  | 
O=C(NO)C(=O)Nc1ccc(Cl)cc1[N+](=O)[O-] | > 100 µM (inactive) | > 100 µM (inactive) | > 100 µM (inactive) | > 100 µM (inactive) | > 100 µM (inactive) |  |  | 
O=C(O)COc1ccc(C(=O)/C(SS/C(C(=O)c2ccc(OCC(=O)O)c(Cl)c2Cl)=C2\C=C(c3ccc(Br)cc3)SS2)=C2/C=C(c3ccc(Br)cc3)SS2)c(Cl)c1Cl |  | 1.05 µM (active) | 39.6 µM (inactive) | 4.57 µM (inactive) | 5.48 µM (inactive) | 3.19 µM (inactive) | 8.13 µM (inactive) | 2.3 µM (inactive)
COc1ccc(C2COc3c(ccc(O)c3C)C2)cc1OC (stereo unspecified) |  | 24.4 µM (inactive) | 91.6 µM (inactive) | 157 µM (inactive) | 24.2 µM (inactive) | 22.9 µM (inactive) |  | 
COc1ccc2[nH]c3c(C)c4cc[n+](COC(=O)c5ccccc5)cc4c(C)c3c2c1 | 0.165 µM (active) | 0.279 µM (active) | 0.282 µM (active) | 0.897 µM (active) | 0.0198 µM (active) | 1.48 µM (inactive) |  | 
Cc1cc2oc(-c3ccccc3)c(C)c(=O)c2c2c1OC(C)(C)S2 | > 100 µM (inactive) | 83.9 µM (inactive) | 55.5 µM (inactive) |  | > 100 µM (inactive) | > 100 µM (inactive) |  | 
COc1ccc(Nc2nc(C#N)c(N)s2)cc1 | 35.9 µM (inactive) |  | 38.5 µM (inactive) | > 100 µM (inactive) |  | 21.4 µM (inactive) |  | 
Nc1nc(N)c2ncn(CC(CO)CC(c3ccccc3)P(=O)(O)O)c2n1 (stereo unspecified) |  | > 100 µM (inactive) | > 100 µM (inactive) | > 100 µM (inactive) | > 100 µM (inactive) | > 100 µM (inactive) |  | 
CCOC(=O)C(C(=O)OCC)P(=S)(S)c1ccccc1 (stereo unspecified) | > 100 µM (inactive) | > 100 µM (inactive) | > 100 µM (inactive) |  |  | > 100 µM (inactive) |  | 
OC1CCC[C@@H]1Sc1ccccc1 (stereo partly specified) | > 100 µM (inactive) | > 100 µM (inactive) | > 100 µM (inactive) | > 100 µM (inactive) |  | > 100 µM (inactive) |  | 
